Consider 13 compounds from article PMC8199001, “Design, Synthesis, and Biological Evaluation of Novel 6H-Benzo[c]chromen-6-one Derivatives as Potential Phosphodiesterase II Inhibitors” (International Journal of Molecular Sciences, 2021).

Structures are written as SMILES. “Also recorded” adds a separate entry of the source.

The target in series [1] is PDE2 (Homo sapiens, UniProt O00408). In words: In vitro PDE2 enzymatic inhibition assay (Bio-cAMP substrate, AlphaScreen detection).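 As to all read-outs here: enzyme reaction run 0.5 h, then anti-cAMP acceptor and streptavidin donor beads added for 1 h in the dark before plate reading, compounds serially diluted from DMSO stock.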 The class given is biochemical. The conditions noted are these: for PDE2 inhibitory activity (result in words): enzyme level. (Alpha assays give light when donor and acceptor beads are brought close together.)
Sequence of PDE2 (O00408 whole entry): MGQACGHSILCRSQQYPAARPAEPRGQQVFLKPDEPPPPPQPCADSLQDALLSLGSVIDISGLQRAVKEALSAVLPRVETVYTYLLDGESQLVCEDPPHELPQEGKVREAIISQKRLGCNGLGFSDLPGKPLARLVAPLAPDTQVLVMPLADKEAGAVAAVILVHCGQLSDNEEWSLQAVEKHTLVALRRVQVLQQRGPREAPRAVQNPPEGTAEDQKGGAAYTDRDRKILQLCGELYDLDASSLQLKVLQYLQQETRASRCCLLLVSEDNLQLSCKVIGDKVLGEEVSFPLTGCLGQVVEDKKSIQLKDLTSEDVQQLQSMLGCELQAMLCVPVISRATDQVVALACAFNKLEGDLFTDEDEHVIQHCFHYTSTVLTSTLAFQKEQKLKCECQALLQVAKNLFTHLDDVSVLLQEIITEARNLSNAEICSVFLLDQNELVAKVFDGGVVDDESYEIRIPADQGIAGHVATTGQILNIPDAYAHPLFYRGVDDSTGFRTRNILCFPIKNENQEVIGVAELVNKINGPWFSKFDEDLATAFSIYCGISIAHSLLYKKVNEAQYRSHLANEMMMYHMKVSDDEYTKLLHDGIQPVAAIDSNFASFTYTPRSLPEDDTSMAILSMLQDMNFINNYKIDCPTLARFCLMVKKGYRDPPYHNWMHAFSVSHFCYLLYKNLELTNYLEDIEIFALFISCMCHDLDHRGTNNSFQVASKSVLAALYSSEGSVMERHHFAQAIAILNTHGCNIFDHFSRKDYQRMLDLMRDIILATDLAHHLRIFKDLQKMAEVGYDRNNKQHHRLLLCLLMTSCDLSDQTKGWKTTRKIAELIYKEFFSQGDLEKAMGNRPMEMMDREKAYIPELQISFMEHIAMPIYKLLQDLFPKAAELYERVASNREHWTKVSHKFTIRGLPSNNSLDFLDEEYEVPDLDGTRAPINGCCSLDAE
Experimental: Preparation of 1*Rection Buffer: we took 1 mL 10*Rection Buffer, added 9 mL ultra-pure water to swirl and mix well, and put it on ice; preparation of PDE2 solution: 210 μL of 1*Rection Buffer were added into a centrifuge tube, then 30 μL PDE2 were added, mixed well, equal to 8-times dilution, and placed on ice; preparation of compound solution with gradient concentration: DMSO was used as the solvent to prepare 10 mM compound solution, and then diluted with 1*Rection Buffer.
We took 2 μL of the diluted compound solution of each concentration into the microplate, added 4 μL PDE2 solution, numbered them A1–A9, added 2 μL 1*Rection Buffer and 4 μL PDE2 into A10, added 2 μL compound solution and 4 μL 1*Rection Buffer to A11, added 6 μL 1*Rection Buffer to A13, and ensured the three groups are parallel to each other. […] The reaction time was 0.5 h in the microporous plate thermostatic oscillator.
Anti-Camp Alohascreen Acceptor and Streptavidin Coated Donor Bead were purchased from Perkin Elmer Company according to response volume: 1* Immunoassay Buffer 549.32 μL and 3.70 μL anti-cAMP AlohaScreen Acceptor were collected under dark conditions. We took 1.98 μL Streptavidin coated Donor Bead, mixed well, added 15 μL mixture to each well after 1 h reaction, and reacted it in the dark for 1 h. After the reaction, we tested it with multilabel microplate detector.
Series [2] has as its system HT-22 cells. In words: Protection of HT-22 cells against corticosterone-induced neurotoxicity (cell viability). The format is cell-based. The source says:
Corticosterone can induce PDE2A, PDE3B, PDE4A, PDE4D, PDE10, and PDE11 expression in HT-22 cells, which results in significant cell lesion. Thus, corticosterone-induced HT-22 neurotoxicity was generally employed as classical cell model to screen PDE-inhibitors for curing neurodegenerative disease, such as AD and PD.
To determine whether compound 1f could promote neuron proliferation and protect HT-22 cells against corticosterone-induced neurotoxicity by PDE2 inhibition, the viability of HT-22 cells was measured in the presence of 100 μM corticosterone (positive control), corticosterone absence (control), and different concentrations of 1f.
We added 943 µL of DMSO solution to 8.2 mg of dexamethasone acetate to obtain a 20 mM stock solution, froze it at −20 °C, and diluted it to 2 mM with serum-containing medium before use. The test compound was dissolved in DMSO to obtain a 20 mM stock solution and stored at −20 °C. Diluted with serum-containing medium to a concentration of 2 × 100, 2 × 50, 2 × 25, 2 × 12.5, 2 × 6.25, 2 × 3.125 μM before use.
After resuscitation, HT-22 cells were cultured in DMEM medium (containing 10% FBS) at 37 °C with 5% CO2. After the cells grew to more than 80% cell fusion, we passaged and seeded the plate, and the density of each well should be 10,000 cells/100 μL/well and cultured for 24 h. After the cells adhered to the wall, drug intervention was given.
10 µL solution of 2 mM dexamethasone acetate was cultured at 37 °C for 30 min. 100 µL drug solution of 2 × 100, 2 × 50, 2 × 25, 2 × 12.5, 2 × 6.25, and 2 × 3.125 μM were added to make the final concentration of dexamethasone acetate 100 μM, and the final concentrations of the drug were 100, 50, 25, 12.5, 6.25, 3.125 μM. After preparation, it took another 24 h to continue the culture. […]
After the incubation, 50 µL of MTT was added to each well, and it needed another 4 h to incubate. […] Finally, the wavelength A 490 was measured. The data were expressed as mean ± sd (n = 5), and one-way anova analysis of variance was used for data statistics; p < 0.05 is defined as a significant difference.

[3] abbreviates: in vitro, Bio-cAMP as substrate, mean of at least three experiments.

Broadly, the IC50 is the midpoint of a concentration-inhibition curve. Read a high IC50 as weaker potency in that assay. As a reminder, the melting point is the temperature of the solid-liquid transition. In turn, `CCCCOc1ccc2c(c1)oc(=O)c1ccccc12` [Compound 1f, 3-butoxy-6H-benzo[c]chromen-6-one] had a melting point of 53.6 to 55.5 °C. The “PDE2 inhibitory activity (result in words)” value in series [1] is “good PDE2 inhibitory activity”. In addition, the IC50 in series [1] (setting [3]) stood at 3.67 ± 0.47 µM. For the same compound, the “Cell viability of HT-22 cells exposed to corticosterone (result in words)” value in series [2] (100 μM corticosterone, compound 6.25~25 μM, 24 h, dose-dependent) is given as “protected cells against corticosterone (CORT)-induced cytotoxicity in a concentration-dependent manner; also recorded: significantly increased cell viability; also recorded: protect HT-22 cells from corticosterone-induced death”. Moreover, in series [2] (100 μM corticosterone, p < 0.01), the “Best concentration for increasing HT-22 cell viability” value is 12.5 µM. Also, the “Protective effect on HT-22 cells compared with BAY 60-7550” value in series [2] (comparison with BAY 60-7550 at 1.0 μM) is on record as “similar; also recorded: comparable activity”.

With `COc1ccc2c(c1)c(=O)oc1cc(OCCSC)ccc12` [Compound 2i, 8-Methoxy-3-(2-(methylthio)ethoxy)-6H-benzo[c]chromen-6-one], the melting point lay within 110.1 to 111.8 °C. Moreover, in series [1], the “PDE2 inhibitory activity (result in words)” value is recorded as “best PDE2 inhibitory activity; also recorded: good PDE2 inhibitory activity”. Moreover, in series [1] (setting [3]), the IC50 was 14.9 ± 1.78 µM.

Take `COc1ccc2c(c1)c(=O)oc1cc(OCC3CCCO3)ccc12` (stereo not shown) [Compound 2l, 8-Methoxy-3-((tetrahydrofuran-2-yl)methoxy)-6H-benzo[c]chromen-6-one]: the melting point lay within 113.1 to 115.5 °C. Further, the IC50 in series [1] (setting [3]) is more than 50 µM.

For `COc1ccc2c(c1)c(=O)oc1cc(OCC3OCCO3)ccc12` [Compound 2m, 3-((1,3-Dioxolan-2-yl)methoxy)-8-methoxy-6H-benzo[c]chromen-6-one], the melting point fell in the range of 147.9 to 150.1 °C. For the same compound, in series [1] (setting [3]), the IC50 is more than 50 µM.

The compound `COc1ccc2c(c1)c(=O)oc1cc(OCC3CCCCC3)ccc12` [Compound 2n, 3-(Cyclohexylmethoxy)-8-methoxy-6H-benzo[c]chromen-6-one] yielded a melting point of 139.8 to 140.1 °C. Moreover, the IC50 in series [1] (setting [3]) was more than 50 µM.

With `COc1ccc2c(c1)c(=O)oc1cc(OCCC3OCCO3)ccc12` [Compound 2o, 3-(2-(1,3-Dioxolan-2-yl)ethoxy)-8-methoxy-6H-benzo[c]chromen-6-one], the melting point fell in the range of 151.6 to 153.2 °C. Moreover, the IC50 in series [1] (setting [3]) was more than 50 µM.

On to `COc1ccc2c(c1)c(=O)oc1cc(OCC3CCOCC3)ccc12` [Compound 2p, 8-Methoxy-3-((tetrahydro-2H-pyran-4-yl)methoxy)-6H-benzo[c]chromen-6-one], for which the melting point lay within 168.1 to 168.5 °C. The compound further came in with an IC50 in series [1] (setting [3]) of 25.2 ± 6.91 µM.

Consider `COc1ccc2c(c1)c(=O)oc1cc(OCc3ccccc3)ccc12` [Compound 2q, 3-(Benzyloxy)-8-methoxy-6H-benzo[c]chromen-6-one], for which the melting point fell in the range of 141.7 to 142.5 °C. The compound also showed an IC50 in series [1] (setting [3]) of 23.3 ± 4.28 µM.

As for `COc1ccc2c(c1)c(=O)oc1cc(OCc3ccc(CO)cc3)ccc12` [Compound 2r, 3-((4-[Hydroxymethyl]benzyl)oxy)-8-methoxy-6H-benzo[c]chromen-6-one], the melting point was in the range of 192.4 to 194.6 °C. For the same compound, the IC50 in series [1] (setting [3]) is more than 50 µM.

With `COc1cc(COc2ccc3c(c2)oc(=O)c2cc(OC)ccc23)cc(OC)c1` [Compound 2s, 3-((3,5-Dimethoxybenzyl)oxy)-8-methoxy-6H-benzo[c]chromen-6-one], the melting point fell in the range of 153.6 to 155.3 °C. Also, the IC50 in series [1] (setting [3]) is more than 50 µM.

For the compound `COc1ccc2c(c1)c(=O)oc1cc(OCc3ccccc3F)ccc12` [Compound 2t, 3-((2-Fluorobenzyl)oxy)-8-methoxy-6H-benzo[c]chromen-6-one], the melting point was in the range of 203.6 to 204.9 °C. For the same compound, in series [1] (setting [3]), the “PDE2 IC50” value was “Insoluble”.

For the compound `COc1ccc2c(c1)c(=O)oc1cc(OCc3cc(C)nn3C)ccc12` [Compound 2u, 3-((1,3-Dimethyl-1H-pyrazol-5-yl)methoxy)-8-methoxy-6H-benzo[c]chromen-6-one], the melting point was 184.6 to 186.6 °C. Besides, the IC50 in series [1] (setting [3]) came out at 29.4 ± 5.01 µM.

As for `COc1ccc2c(c1)c(=O)oc1cc(OCCn3cccn3)ccc12` [Compound 2w, 3-(2-(1H-pyrazol-1-yl)ethoxy)-8-methoxy-6H-benzo[c]chromen-6-one], the melting point was 159 to 161.1 °C. Moreover, the IC50 in series [1] (setting [3]) is more than 50 µM.
